Test results from patent US6015805A, “17β-nitro-11β-arylisteroids and their derivatives having agonist or antagonist hormonal properties” (Research Triangle Research North Carolina, priority 1999, dated 2000).

How the values were obtained:
progestin receptor (rPR) = target: T1, progestin receptor (rPR) (Oryctolagus cuniculus, UniProt P06186); assay: Receptor binding (rabbit), progestin receptor; conditions: for Ratio PR/GR: ratio of rPR to rGR relative affinities; for Relative Binding Affinity, rPR, Relative Affinity (Progesterone): relative to progesterone = 100, rabbit progestin receptor
T1 construct: hormone receptors for progestins and glucocorticoids from rabbits; from tissue; host or cells: rabbit
T1 sequence (P06186 1-930): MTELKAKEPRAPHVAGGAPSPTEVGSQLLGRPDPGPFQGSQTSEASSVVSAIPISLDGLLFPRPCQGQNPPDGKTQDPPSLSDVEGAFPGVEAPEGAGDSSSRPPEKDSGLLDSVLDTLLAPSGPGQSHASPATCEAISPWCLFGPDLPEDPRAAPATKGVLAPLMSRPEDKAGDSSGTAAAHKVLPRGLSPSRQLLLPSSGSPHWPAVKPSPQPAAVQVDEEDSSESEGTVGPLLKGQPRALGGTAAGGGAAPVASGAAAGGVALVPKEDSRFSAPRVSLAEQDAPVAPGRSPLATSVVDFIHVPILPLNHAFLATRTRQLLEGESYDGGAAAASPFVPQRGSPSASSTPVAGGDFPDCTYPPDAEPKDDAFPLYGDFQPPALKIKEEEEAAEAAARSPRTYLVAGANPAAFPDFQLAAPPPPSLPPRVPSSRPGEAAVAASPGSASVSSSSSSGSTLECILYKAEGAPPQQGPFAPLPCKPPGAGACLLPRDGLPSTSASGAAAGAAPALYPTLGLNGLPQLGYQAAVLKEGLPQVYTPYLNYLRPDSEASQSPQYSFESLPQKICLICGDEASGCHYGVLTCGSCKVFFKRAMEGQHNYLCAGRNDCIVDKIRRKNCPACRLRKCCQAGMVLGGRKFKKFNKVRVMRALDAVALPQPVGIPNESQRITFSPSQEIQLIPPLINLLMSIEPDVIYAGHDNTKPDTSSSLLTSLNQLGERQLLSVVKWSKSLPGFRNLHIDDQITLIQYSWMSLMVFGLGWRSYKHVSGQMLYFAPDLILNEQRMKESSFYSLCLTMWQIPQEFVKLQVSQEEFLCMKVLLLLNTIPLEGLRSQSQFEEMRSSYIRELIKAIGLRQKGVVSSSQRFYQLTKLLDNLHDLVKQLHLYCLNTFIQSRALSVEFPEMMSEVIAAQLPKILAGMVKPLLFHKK

[1] = target: T2, glucocorticoid receptor (rGR) (Oryctolagus cuniculus, UniProt P59667); assay: Receptor binding (rabbit), glucocorticoid receptor; conditions: relative to dexamethasone = 100
T2 construct: the source of the glucocorticoid receptor was the thymus of the estrogen-primed immature female rabbit; from tissue; host or cells: thymus of the estrogen-primed immature female rabbit
T2 sequence (P59667 1-772): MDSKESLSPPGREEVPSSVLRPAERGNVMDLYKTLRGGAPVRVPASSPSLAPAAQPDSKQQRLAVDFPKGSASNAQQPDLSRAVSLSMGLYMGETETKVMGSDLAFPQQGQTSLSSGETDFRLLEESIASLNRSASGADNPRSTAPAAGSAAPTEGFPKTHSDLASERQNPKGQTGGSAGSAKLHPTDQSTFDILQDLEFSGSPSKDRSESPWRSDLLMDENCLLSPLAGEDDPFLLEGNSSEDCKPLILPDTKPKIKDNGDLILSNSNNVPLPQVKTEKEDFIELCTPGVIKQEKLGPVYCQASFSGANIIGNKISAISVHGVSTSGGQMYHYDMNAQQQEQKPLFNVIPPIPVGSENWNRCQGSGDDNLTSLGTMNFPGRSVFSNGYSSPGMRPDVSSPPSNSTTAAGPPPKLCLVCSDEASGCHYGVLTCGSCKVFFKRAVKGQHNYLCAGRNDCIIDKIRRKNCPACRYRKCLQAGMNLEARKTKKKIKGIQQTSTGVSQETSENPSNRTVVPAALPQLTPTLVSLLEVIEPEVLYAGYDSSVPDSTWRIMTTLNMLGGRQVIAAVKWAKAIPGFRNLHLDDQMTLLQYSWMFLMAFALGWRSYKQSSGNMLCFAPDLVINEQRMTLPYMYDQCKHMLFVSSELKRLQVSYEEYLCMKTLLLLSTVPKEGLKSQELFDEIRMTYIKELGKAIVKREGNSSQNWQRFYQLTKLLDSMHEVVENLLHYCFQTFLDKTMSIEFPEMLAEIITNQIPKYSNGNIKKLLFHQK
Description: (§1) The affinity of the compounds for hormone receptors for progestins and glucocorticoids from rabbits was determined by standard procedures similar to those that have been described in C. E. Cook, et al., Human Reproduction, Volume 9, supplement 1, pp. 32-39 (1994). However, the source of the glucocorticoid receptor was the thymus of the estrogen-primed immature female rabbit. The affinity of the compounds for the human progesterone hormone receptor was determined by standard procedures similar to those that have been described in Horwitz, et al., Cell, 28: 633-42 (1982) and Mockus, et al., Endocrinology, 110: 1564-71 (1982). The receptor was obtained in cytosol from human T-47D breast cells and [^3 H]-R5020 was used as the radioligand. T47D cells (1 billion/mL) were homogenized in TEDG buffer (10 mM Tris, 1.5 mM EDTA, 1 mM dithiothreitol, 1 mM sodium molybdate, and 10% glycerol) using a Dounce pestle A, and the homogenate was centrifuged at 34,000×g for 1 hour. The supernatant was stored at -80° C. An aliquot of receptor preparation was combined with test compound, 0.4 nM [^3 H]-R5020, and TEDG buffer to a final volume of 150 ,μL and incubated for 4 hours at 4° C. in microtiter plates. At the end of incubation 40 μL 40% polyethylene glycol and 15 μL 1% human gamma globulin was added to the incubate and the contents of each well were harvested onto double thick B filter mats (Wallac LKB) using a TomTec harvester. A film of Meltilux scintillant wax was applied to the dried filter mats and the mats were counted in a scintillation counter to determine inhibition of [^3 H]-R5020 binding. Data are expressed as lC50 values, i.e., the concentration of compound that inhibits radioligand binding by 50%.

[2] = test system: estrogen-primed immature female rabbits; assay: Anti-Clauberg assay (oral test compound with subcutaneous progesterone); assay type: in vivo, rabbit; conditions: given orally together with subcutaneous progesterone; McPhail Index
rabbits [3] = assay: Anti-McGinty assay (antiprogestational activity, test compound plus progesterone); assay type: in vivo, rabbit; design: key to McPhail Index, Anti-McGinty Assay, Standard / McPhail Index, Anti-McGinty Assay (Antagonist): McPhail scoring scale for progestational endometrial response; conditions: for McPhail Index, Anti-McGinty Assay (Antagonist): plus progesterone
Description: (§2) Progestational activity and antiprogestational activity were determined in rabbits by means of the McGinty test (test compound alone, procedure of McGinty et al., Endocrinology, 24: 829-832 (1939)) or anti-McGinty test (test compound plus progesterone, procedure of Tamara et al., Jpn. J. Fertil Steril 24: 48-81 (1979)). Results were scored according to McPhail (McPhail, J Physiol., 83: 146 (1934)). These are standard procedures known to those skilled in the art. The results of these assays are shown in Tables 4 (agonist activity) and 5 (antagonist activity). […] Physiol, 83: 146 (1934)).

[4] = target: T3, human progesterone hormone receptor (hPR) (Homo sapiens, UniProt P06401); assay: Receptor binding (human), inhibition of [^3 H]-R5020 binding; conditions: cytosol from human T-47D cells; 0.4 nM [^3 H]-R5020; 4 hours at 4° C.
T3 construct: The receptor was obtained in cytosol from human T-47D breast cells; endogenous in cells; host or cells: T-47D human breast cells (cytosol)
T3 sequence (P06401 1-933): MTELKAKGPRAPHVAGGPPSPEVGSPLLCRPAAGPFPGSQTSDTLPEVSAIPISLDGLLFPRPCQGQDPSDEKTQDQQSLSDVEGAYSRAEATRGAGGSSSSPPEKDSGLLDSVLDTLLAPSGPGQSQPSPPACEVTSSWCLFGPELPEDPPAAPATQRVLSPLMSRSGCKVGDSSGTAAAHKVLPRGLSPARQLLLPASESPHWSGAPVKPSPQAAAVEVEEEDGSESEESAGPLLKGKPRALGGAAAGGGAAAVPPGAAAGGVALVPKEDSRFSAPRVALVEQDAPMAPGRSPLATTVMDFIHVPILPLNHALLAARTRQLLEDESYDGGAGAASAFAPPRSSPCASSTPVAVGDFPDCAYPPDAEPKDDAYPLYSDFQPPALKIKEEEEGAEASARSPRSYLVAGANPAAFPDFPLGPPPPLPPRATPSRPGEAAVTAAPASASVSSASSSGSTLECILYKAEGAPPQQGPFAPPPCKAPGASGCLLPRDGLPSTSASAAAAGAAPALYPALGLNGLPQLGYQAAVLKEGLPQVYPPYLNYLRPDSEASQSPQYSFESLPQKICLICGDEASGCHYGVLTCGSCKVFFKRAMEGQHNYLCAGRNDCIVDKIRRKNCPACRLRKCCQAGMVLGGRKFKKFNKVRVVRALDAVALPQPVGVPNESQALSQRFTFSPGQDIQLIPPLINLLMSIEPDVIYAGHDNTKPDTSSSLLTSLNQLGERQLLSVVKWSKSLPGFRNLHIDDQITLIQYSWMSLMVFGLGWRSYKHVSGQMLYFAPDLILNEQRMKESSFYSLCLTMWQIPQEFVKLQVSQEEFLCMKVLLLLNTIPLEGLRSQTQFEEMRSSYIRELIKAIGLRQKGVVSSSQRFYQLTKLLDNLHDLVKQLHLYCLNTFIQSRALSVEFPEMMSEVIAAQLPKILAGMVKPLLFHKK
Description: as §1

rabbits [5] = assay: McGinty assay (progestational activity, test compound alone); assay type: in vivo, rabbit; design: key: McPhail scoring scale for progestational endometrial response
Description: as §2

`C[S+]([O-])c1ccc([C@H]2C[C@@]3(C)[C@@H](CC[C@]3(CCCO)[N+](=O)[O-])[C@@H]3CCC4=CC(=O)CCC4=C32)cc1` (stereo partly drawn) [I 4-MeS(O) H O H --(CH2)3 OH, 17α-(3-Hydroxypropyl)-11β-[4-(methylsulfinyl)phenyl]-17β-nitroestra-4,9-dien-3-one] was tested, and the “Ratio PR/GR” value (progestin receptor (rPR)) was greater than 10, the “Relative Binding Affinity, rPR, Relative Affinity (Progesterone)” value (“Relative Binding Affinity, rPR” for short) (progestin receptor (rPR)) was 23 and the “Relative Binding Affinity, rGR, Relative Affinity (Dexamethasone)” value (from here on “Relative Binding Affinity, rGR”) [1] was less than 2.

In the case of `CC#C[C@]1([N+](=O)[O-])CC[C@H]2[C@@H]3CCC4=CC(=O)CCC4=C3[C@@H](c3ccc(N(C)C)cc3)C[C@@]21C` [I 4-Me2 N H O H --CC--CH3, 11β-[4-(N,N-Dimethylamino)phenyl]-17β-nitro-17α-(1-propynyl)estra-4,9-dien-3-one], the “Ratio PR/GR” value (progestin receptor (rPR)) is reported as 1.5, the “Relative Binding Affinity, rPR” value (progestin receptor (rPR)) is reported as 55 and the “Relative Binding Affinity, rGR” value [1] is reported as 36. For the same compound, the “antiprogestational activity in the anti-Clauberg assay” value [2] was “potent antiprogestin”.

`CN(C)c1ccc([C@H]2C[C@@]3(C)[C@@H](CC[C@@]34CCC=[N+]4[O-])[C@@H]3CCC4=CC(=O)CCC4=C32)cc1` [II 4-Me2 N H O H -- H, 11β-[4-(N,N-Dimethylamino)phenyl]-3',4'-dihydro-1'-oxo-spiro[estra-4,9-dien-17β,2'(2'H)-pyrrole]-3-one] was tested, and the “McPhail Index, Anti-McGinty Assay (Antagonist)” value (“McPhail Index … (Antagonist)” for short) (rabbits [3]; dose 0.3 micrograms) was 2.0 ± 0.11, the “McPhail Index … (Antagonist)” value (rabbits [3]; dose 3 micrograms) was 1.83 ± 0.2 and the “McPhail Index … (Antagonist)” value (rabbits [3]; dose 30 micrograms) was 0.23 ± 0.23. The IC50 [4] was 18 nM, the “McPhail Index, McGinty Assay (Agonist)” value (rabbits [5]; dose 0.3 micrograms) was 0 ± 0 and the “McPhail Index, McGinty Assay (Agonist)” value (rabbits [5]; dose 3 micrograms) was 0 ± 0. For the same compound, the “McPhail Index, McGinty Assay (Agonist)” value (rabbits [5]; dose 30 micrograms) was 0 ± 0.

`CN(C)c1ccc([C@H]2C[C@@]3(C)[C@@H](CC[C@]3(/C=C/CO)[N+](=O)[O-])[C@@H]3CCC4=CC(=O)CCC4=C32)cc1` [I 4-Me2 N H O H CH=CHCH2 OH, 11β-[4-(N,N-Dimethylamino)phenyl]-17α-[(E)-1-(3-hydroxy)propenyl]-17β-nitroestra-4,9-dien-3-one] was tested, and the “Ratio PR/GR” value (progestin receptor (rPR)) was 3.5, the “Relative Binding Affinity, rPR” value (progestin receptor (rPR)) was 56 and the “Relative Binding Affinity, rGR” value [1] was 16.

`CC(=O)[C@H]1CC[C@H]2[C@@H]3CCC4=CC(=O)CC[C@]4(C)[C@H]3CC[C@]12C` [Progesterone, reference compound] was tested, and the “McPhail Index, Anti-McGinty Assay, Standard” value (rabbits [3]; standard, dose not given) was 2.45 ± 0.14 and the “McPhail Index, McGinty Assay, Standard” value (rabbits [5]; standard, dose not given) was 2.45 ± 0.14.

In the case of `CSc1ccc([C@H]2C[C@@]3(C)[C@@H](CC[C@]3(CCCO)[N+](=O)[O-])[C@@H]3CCC4=CC(=O)CCC4=C32)cc1` [I 4-MeS H O H --(CH2)3 OH, 17α-(3-Hydroxypropyl)-11β-[4-(methylthio)phenyl]-17β-nitroestra-4,9-dien-3-one], the “Ratio PR/GR” value (progestin receptor (rPR)) is reported as 20.3, the “Relative Binding Affinity, rPR” value (progestin receptor (rPR)) is reported as 61 and the “Relative Binding Affinity, rGR” value [1] is reported as 3.

With `CC(=O)c1ccc(C2CC3(C)C(CCC34CCC(C)=[N+]4[O-])C3CCC4=CC(=O)CCC4=C23)cc1` (stereo not drawn) [II 4-CH3 CO H O H -- CH3, 11β-(4-Acetylphenyl)-3',4'-dihydro-5'-methyl-1'-oxo-spiro[estra-4,9-dien-17β,2'(2'H)-pyrrole]-3-one] the “Relative Binding Affinity, rPR” value (progestin receptor (rPR)) was 21.

In the case of `CSc1ccc([C@H]2C[C@@]3(C)[C@@H](CC[C@]3(C=CCO)[N+](=O)[O-])[C@@H]3CCC4=CC(=O)CCC4=C32)cc1` [I 4-MeS H O H CH=CHCH2 OH], the “Relative Binding Affinity, rPR” value (progestin receptor (rPR)) is reported as 32.
